According to patent US20090220516A1, “Neuroprotection of retinal ganglion cells” (priority 2005, published 2009):
Values joined by “and” are separate entries in the source; they are usually repeats but may differ in a detail not shown here. Identical values can stand only once.

How the values were obtained:
[1] = system: retinal ganglion cells; assay: Intracellular Ca2+ measurements (fura-2): BzATP-triggered Ca2+ elevation in ganglion cells from mixed retinal cultures; format: cell-based, rat
Description: (§1) Pups PD2-6 from untimed pregnant Long-Evan rats (Jackson Laboratory Inc., Bar Harbor, Me.) were back-labeled by the injection of FluoroGold derivative aminostilbamidine (Molecular Probes, Eugene, Oreg.) based upon standard protocols. […] Using a Hamilton syringe affixed to a micromanipulator, a needle was inserted 0.8 mm lateral from the midline and 0.8 mm anterior to Bregma's line and a total of 2.5 μl dye was delivered to each side at a depth of 2 mm and 1 mm. The needle was retracted after a delay of 2 min to allow dye absorption and the wound was closed with 2-3 sutures. Preliminary examination of labeled retinal whole mounts confirmed an even distribution of dye, showing all cells were stained 2 days after injection, with no further increase in the number of labeled cells in subsequent days. Consequently, retinas containing labeled ganglion cells were dissociated 2-6 days after injection. Animals were sacrificed by i.p. injection of 50/5 mg/kg Ketamine/Xylazine followed by an overdose, in accordance with University of Pennsylvania IACUC approved protocols and the ARVO Statement on the Use of Animals in Ophthalmic and Vision Research.
The retina was dissected from each globe, washed in sterile Hanks' balanced salt solution (HBSS, Gibco, Inc Invitrogen Corp., Carlsbad, Calif.), then incubated in HBSS containing activated papain (4.5 U/ml; Worthington Biochemical Corp., Lakewood, N.J.) for 12 minutes at 37° C. Retinas were washed twice and triturated 50 times with a 1-ml glass pipette to dissociate cells. Cells were plated onto twelve 12-mm coverslips previously coated with poly-L-lysine. The basic growth medium contained Neurobasal medium with 2 mM glutamine, 100 μg/ml gentamicin, 0.025 ml/ml B27 supplement (all Invitrogen Inc., Carlsbad, Calif.), 0.7% methylcellulose (Stemcell Technologies Inc., Vancouver, BC, Canada) and 2.5% rat serum (Cocalico Biologicals Inc., Reamstown, Pa.). Retinal cells were incubated at 37° C. with 5% CO2.
(§2) Unlabeled RGCs grown on coverslips for 24 hrs were loaded with 10 μM fura-2 and 2% pluoronic (Molecular Probes, Eugene, Oreg.) for 60-90 min at room temperature, rinsed and maintained in fura-2-free solution for 30 min before data acquisition began. The coverslips were mounted on a Nikon Diaphot inverted microscope and visualized with a 40× objective. […] To obtain Ca^2+ measurements, the field was alternatively excited at 340 nm and 380 nm with a scanning monocrometer and the fluorescence emitted >520 nm from a region of interest surrounding individual retinal ganglion cells was imaged with a CCD camera and analyzed (all Photon Technologies International, Inc., Lawrenceville, N.J.). Cells were perfused with a control solution at the start of Ca^2+imaging experiments containing (in mM) 105 NaCl, 4.5 KCl, 2.8 NaHepes, 7.2 Hepes acid, 1.3 CaCl2, 0.5 MgCl2, 5 glucose, 75 mannitol, pH 7.4. Drugs were dissolved into the control solution. Calibration was performed separately on each cell after the experiment by perfusing cells in the presence of 5 μM ionomycin and control solution (with 1.3 mM Ca2+) followed by ionomycin in the base solution without Ca^2+ and with the addition of 5 mM EGTA (pH 7.4). The 340/380 ratio was converted to Ca^2+ concentration as previously described. All experiments were performed at room temperature.
In Ca^2+ experiments, n refers to the number of responses tested. The BzATP concentration-response curve was fit with a standard exponential function y=y0+ae(−bx) using Sigmaplot software (SPSS Inc, Chicago, Ill.). The % block of Ca2+ elevations is defined as 100*(a−b)/a, where a is the response under control conditions and b is the response under experimental conditions. All materials are from Sigma Chemical Corp, (St. Louis, Mo.) unless otherwise indicated.

[2] = system: retinal ganglion cells; assay: Cell viability studies: labeled retinal ganglion cells surviving after 24 hrs in mixed retinal cultures; format: cell-based, rat; details: for reduction in the number of dead cells / protection against cell death triggered by BzATP: 50 uM BzATP + 100 nM A3 agonist
Description: as §1
The retina was dissected from each globe, washed in sterile Hanks' balanced salt solution (HBSS, Gibco, Inc Invitrogen Corp., Carlsbad, Calif.), then incubated in HBSS containing activated papain (4.5 U/ml; Worthington Biochemical Corp., Lakewood, N.J.) for 12 minutes at 37° C. Retinas were washed twice and triturated 50 times with a 1-ml glass pipette to dissociate cells. Cells were plated onto twelve 12-mm coverslips previously coated with poly-L-lysine. […] Retinal cells were incubated at 37° C. with 5% CO2.
Drugs were added to the culture medium at the time when cells were plated onto coverslips. […] All counts were performed in a masked fashion. In experiments involving antagonist pretreatment, drugs were added to the medium at the time of plating. After preincubation at 37° C., stock concentrations of BzATP were added directly to the cells to give the final concentration shown.
Data are presented as mean±standard error of the mean. Significance was evaluated using a Student's unpaired t test, with a p value <0.05 signifying significance. For cell viability studies, the number of experiments, n, represents the number of coverslips from which 80 fields were measured and averaged. All values were normalized to the mean control level for that day's matched set of experiments to control for variation in plating efficiency.

[3] = system: isolated retinal ganglion cells; assay: Intracellular Ca2+ measurements: BzATP-triggered Ca2+ elevation in isolated (immunopanned) retinal ganglion cells; format: cell-based, rat; details: 50 μM BzATP 15 sec, purified ganglion cells
Description: as §2
(§3) Purification of ganglion cells using the panning procedure is based upon published methods (Hartwick et al., 2004). Neonatal rat retinas (PD 7-12) were dissected and incubated at 37° C. for 30 min in HBSS containing 15 U/mL papain, 0.2 mg/mL DLcysteine and 0.004% DNAse I (Worthington/Cooper, Lakewood, N.J.). The tissue was triturated in HBSS with 1.5 mg/ml ovomucoid (Worthington/Cooper, Lakewood, N.J.), 1.5 mg/ml BSA and 0.004% DNase I, centrifuged at 200 g for 11 minutes at room temperature, and cells were rewashed with 10 mg/ml ovomucoid-BSA solution. After centrifugation, cells were resuspended with PBS containing 0.2 mg/ml BSA and 5 μg/ml insulin and filtered through a Nitex mesh (Small Parts Inc, Miami Lakes, Fla.). […]

[4] = system: isolated ganglion cells; assay: Glutamate release from isolated ganglion cells (GDH/NADH fluorescence); format: cell-based, rat
Description: as §3
The measurement of glutamate was analogous to that used previously by the Haydon laboratory. […] NADH fluorescence is excited using a xenon arc lamp (100 watts) with a D360/10x exciter filter (Chroma Technology Corp., Brattleboro, Vt.), 510DRLP dichroic mirror (Omega Optical, Brattleboro, Vt.), and 515EFLP emission filter (Omega Optical). Images collected before, during and after the BzATP stimulus indicate the level of fluorescence. The percent increase in fluorescence, figured by dividing the change in fluorescence (ΔF) by the fluorescence level before stimulation (F0), represents the level of glutamate release. […]

[5] = biological target: T1, human A2B receptors (Homo sapiens, UniProt P29275); details: cited from earlier work
T1 sequence (P29275 1-332): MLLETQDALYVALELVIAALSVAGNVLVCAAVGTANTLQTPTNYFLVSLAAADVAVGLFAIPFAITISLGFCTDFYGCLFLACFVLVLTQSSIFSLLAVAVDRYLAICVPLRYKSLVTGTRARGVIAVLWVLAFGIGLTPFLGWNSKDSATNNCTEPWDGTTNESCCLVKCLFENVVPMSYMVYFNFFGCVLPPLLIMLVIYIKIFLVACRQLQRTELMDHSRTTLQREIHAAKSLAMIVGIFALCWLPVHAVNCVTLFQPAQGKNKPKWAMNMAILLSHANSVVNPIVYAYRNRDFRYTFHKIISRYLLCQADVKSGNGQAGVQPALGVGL

[6] = 50 uM BzATP + 100 nM A3 agonist (30 min before and during), 24 hrs

N[C@@H](CCCP(=O)(O)O)C(=O)O [APV, D-amino-phosphonovalerate]
mean reduction of Ca2+ elevation triggered by BzATP ([1]; APV (100 μM in FIG. 2C, 300 μM in summary), 50 μM BzATP 15 sec): 39.7±12.6% | ganglion cell survival levels ([2]; 50 μM BzATP + APV, 24 hrs): 77.8±5.9% | block of Ca2+ response to BzATP ([3]; 100 μM APV): 36.1±7.5%

Nc1ncnc2c1ncn2[C@@H]1O[C@H](COP(=O)(O)OP(=O)(O)OP(=O)(O)O)[C@@H](OC(=O)c2ccc(C(=O)c3ccccc3)cc2)[C@H]1O [BzATP]
mean levels of Ca2+ ([1]; first exposure to 50 μM BzATP alone, 15 sec): 647.0 ± 80.7 nM | mean levels of Ca2+ ([1]; third exposure to BzATP after removal of CI-IB-MECA): 600.3 ± 227.6 nM | ganglion cell survival, % of control ([2]; 50 μM BzATP alone, 24 hrs): 62.9 % of control and 68.9±2.3 % of control and 56.8 % of control and 79.0±2.9 % of control | increase in absorbance at 360 nm (glutamate release) ([4]; BzATP alone, 17 applications from 7 coverslips): 17.1±4.0%

CNC(=O)C1OC(n2cnc3c(NCc4cccc(I)c4)nc(Cl)nc32)C(O)C1O (stereo not shown) [CI-IB-MECA, 2-chloro-N6-(3-iodobenzyl)-adenosine-5-N-methyluronamide]
block of Ca2+ increase, normalized to peak of first response ([1]; 100 nM CI-IB-MECA, 50 μM BzATP 15 sec): 81% | mean levels of Ca2+ ([1]; second BzATP application in presence of 100 nM CI-IB-MECA): 110.7 ± 32.8 nM | ganglion cell survival, % of control [2, 6]: 80.1±4.7 % of control | reduction in the number of dead cells / protection against cell death triggered by BzATP ([2]; 24 hrs): 54% | Kd [5]: > 100 µM

CNC(=O)[C@H]1O[C@@H](n2cnc3c(NCc4cccc(I)c4)ncnc32)[C@H](O)[C@@H]1O [IB-MECA]
ganglion cell survival, % of control [2, 6]: 98.5±2.7 % of control | reduction in the number of dead cells / protection against cell death triggered by BzATP ([2]; 24 hrs): 95%

C[C@]12N[C@H](Cc3ccccc31)c1ccccc12 [MK-801]
decrease of Ca2+ elevation triggered by BzATP ([1]; 10 μM MK-801, 50 μM BzATP 15 sec, peak vs mean response before and after): 55.1±6.5% | ganglion cell survival, % of control ([2]; 50 μM BzATP + 10 μM MK-801, 24 hrs): 102.7±3.2 % of control | decrease of Ca2+ elevation triggered by BzATP ([3]; 10 μM MK-801): 50.1±5.5%

CN[C@H](CC(=O)O)C(=O)O [NMDA, N-methyl-D-aspartate]
ganglion cell survival, % of control ([2]; 100 uM NMDA alone, 24 hrs): 69.9±3.2 % of control

Nc1ncnc2c1ncn2[C@@H]1O[C@H](CO)[C@@H](O)[C@H]1O [adenosine]
block of Ca2+ increase compared to BzATP alone ([1]; 300 uM adenosine, two minute 50 uM BzATP): 85% | effect on Ca2+ response to brief 50 uM BzATP ([1]; adenosine added with alternate BzATP applications, reversible, repeatable): greatly reduced the response | peak Ca2+ levels ([1]; two minute application of 50 uM BzATP in presence of 300 uM adenosine (2 min pretreatment), n=7): 215 ± 62 nM | ganglion cell survival ([2]; 50 μM BzATP + 300 uM adenosine (30 min before), 24 hours): 91.2±3.5% | ganglion cell survival, % of control ([2]; 50 μM BzATP + 1 mM adenosine, 24 hours): 92.4±2.5 % of control | ganglion cell counts, % of control ([2]; 100 uM NMDA + 300 uM adenosine, 24 hrs): 102.1±3.9 % of control

CCOc1ccc(Nc2ccc(/C(=C3C=C/C(=[N+](/CC)Cc4cccc(S(=O)(=O)[O-])c4)C=C/3C)c3ccc(N(CC)Cc4cccc(S(=O)(=O)[O-])c4)cc3C)cc2)cc1.[Na+] [brilliant blue G]
net absorbance change (glutamate release) in response to BzATP ([4]; in presence of brilliant blue G, n=3): −0.9±0.9%

CC12CC3CC(C)(C1)CC(N)(C3)C2 [memantine]
reduction of Ca2+ elevation triggered by BzATP ([1]; 30 μM memantine, in 4/7 experiments, effect variable, 50 μM BzATP): 65.5±6.7% | effect on ganglion cell survival ([2]; 50 μM BzATP + 100 μM memantine, 24 hrs): neuroprotective | inhibition at 30 µM ([3]; Rattus norvegicus, 30 μM memantine, read-out: inhibition of Ca2+ response to BzATP): 18.4 ± 4.2%
